The values that follow come from patent US12414569B2 (priority 2019, dated 2025).

For the data set the following is noted: Citrus sinensis.
On to `Cc1nnc(C)s1` [2,5-Dimethyl-1,3,4-thiadiazole], for which the “Distance Traveled” value is given as 14 cm.
To `O=CC=Cc1ccccc1` [Cinnamaldehyde] belongs 12 cm; to `C=CCSSSCC=C` [Diallyl Trisulfide], 26 cm; to `C=CCSSCC=C` [Diallyl disulfide], 24 cm.
